Results from patent US6166062A, “Pharmaceutical compositions containing phospholipase inhibitor” (Shionogi & Co., Ltd., priority 1999, dated 2000).

Assays:
[1] = solubility of Compound (I) (statement); type: physicochemical
Source text: Storage of a pharmaceutical composition of Compound (I) prepared by known methods may lead to degradation of its content and a coloring and a worsening of its reconstitution properties, especially in the case of injections to be dissolved before use. It is difficult to provide a pharmaceutical composition of Compound (I) which has good stability and a good reconstitution property, especially for injections of Compound (I) to be dissolved before use, after long storage at room temperature.

[2] = system: human non-pancreatic secretory phospholipase A2 (sPLA2); details: as disclosed in JP-A 7-285933, EP 0 675 110 A1, U.S. Pat. No. 5,654,326; cited from earlier work
[3] = collapse temperature of frozen solutions (freeze dry microscopy); type: physicochemical
Source text: The term, "collapse temperature," describes the glass transition temperature for amorphous solids or eutectic temperature for crystalline solids. Collapse temperature is that temperature above which the product is not completely frozen. Freeze dry microscoscropy enables measurement of the temperature at which frozen solutions begin to lose their rigid structure during a sublimation process.

CCc1c(C(=O)C(N)=O)c2c(OCC(=O)[O-])cccc2n1Cc1ccccc1.[Na+] [Compound (I), sodium [[3-(2-amino-1,2-dioxoethyl)-2-ethyl-1-(phenylmethyl)-1H-indol-4-yl]oxy]acetate]
solubility [1]: sparingly soluble
inhibitor against human non-pancreatic secretory phospholipase A2 [2]: inhibitor
collapse temperature ([3]; after annealing): about -13 °C
collapse temperature ([3]; before annealing): about -33 °C
